The record followed here is US8518966B2, “Amidoalkyl-8-azabicyclo[3.2.1]octane compounds as mu opioid receptor antagonists” (Theravance, Inc., priority 2007, dated 2013).

For experiment [1], the target named is T1, human mu opioid receptor (Homo sapiens, UniProt P35372).
T1 construct: host or cells: CHO-K1
Briefly: biochemical. In kind it is binding.

Experiment [2] concerns loperamide-induced delayed gastric emptying. Briefly: Rat gastric emptying assay (reversal of loperamide-induced delayed gastric emptying). Type of experiment: in vivo. As to conditions: administered orally, loperamide 1 mg/kg s.c.
Experiment [3] has as its target T1, human mu opioid receptor. As to the kind of experiment: biochemical. As to conditions: read-out: intrinsic activity (IA), bound GTP-Eu relative to DAMGO (IA=100).

T1 sequence (P35372 whole entry): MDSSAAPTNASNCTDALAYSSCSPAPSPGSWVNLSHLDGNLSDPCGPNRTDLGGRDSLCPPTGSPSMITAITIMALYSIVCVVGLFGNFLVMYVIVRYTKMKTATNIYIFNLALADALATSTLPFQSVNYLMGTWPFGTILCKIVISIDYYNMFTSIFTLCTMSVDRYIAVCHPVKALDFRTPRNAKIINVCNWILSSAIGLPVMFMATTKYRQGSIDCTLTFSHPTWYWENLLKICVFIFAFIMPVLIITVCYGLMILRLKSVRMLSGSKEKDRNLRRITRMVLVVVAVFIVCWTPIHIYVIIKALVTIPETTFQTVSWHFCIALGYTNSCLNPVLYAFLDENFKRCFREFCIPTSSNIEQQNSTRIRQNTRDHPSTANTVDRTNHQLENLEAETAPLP

As a reminder, the Ki is the dissociation constant of the complex between target and ligand, obtained from inhibition or displacement. High values mean lower affinity, low ones higher affinity. With `CCC(CC)CN(CCN1[C@@H]2CC[C@H]1C[C@@H](c1cccc(C(N)=O)c1)C2)C(=O)CS(C)(=O)=O` [Example 7, 3-endo-(8-{2-[(2-ethylbutyl)-(2-methanesulfonyl-acetyl)amino]ethyl}-8-azabicyclo[3.2.1]oct-3-yl)-benzamide], on human mu opioid receptor [1], the inhibition constant (Ki) was 0.158 nM. Moreover, in experiment [2], the “ID50, dose required for 50% reversal of the effects of loperamide” value came to 0.53 mg/kg. At human mu opioid receptor [3], the Emax was 3%.
The pKi is −log10 of the Ki, conventionally taken in molar units. The low end stands for a large Ki, the high end for a small Ki. As to `CCC(CC)CN(CCCN1[C@@H]2CC[C@H]1C[C@@H](c1cccc(C(N)=O)c1)C2)C(=O)CO` [Example 1, 3-endo-(8-{3-[(2-ethylbutyl)-(2-hydroxyacetyl)-amino]propyl}-8-aza-bicyclo[3.2.1]oct-3-yl)-benzamide], the negative-log Ki (pKi) at the human mu opioid receptor on human mu opioid receptor [1] is on record as 10.0. Further, the “ID50, dose required for 50% reversal of the effects of loperamide” value in experiment [2] is recorded as 0.29 mg/kg. Also, the Emax at human mu opioid receptor [3] turned out to be 3%.
With `CCC(CC)CN(CCCN1[C@@H]2CC[C@H]1C[C@@H](c1cccc(C(N)=O)c1)C2)C(=O)CS(C)(=O)=O` [Example 6, 3-endo-(8-{3-[(2-ethylbutyl)-(2-methanesulfonyl-acetyl)amino]propyl}-8-azabicyclo[3.2.1]oct-3-yl)-benzamide], the Ki on human mu opioid receptor [1] was 0.126 nM. Moreover, on human mu opioid receptor [3], the Emax was 1%.
